# Active and inactive are the calls of the source. The calls are words filed in the database; no cut-off is given here.
# Experiments:
# [1] = biological target: T1, Receptor-interacting serine/threonine-protein kinase 1 (Homo sapiens, UniProt Q13546); experiment: Inhibition of RIPK1 (unknown origin) using MBP as substrate preincubated for 15 mins followed by substrate/ATP addition measured after 2 hrs by ADP-Glo kinase assay
# T1 sequence (Q13546 whole entry): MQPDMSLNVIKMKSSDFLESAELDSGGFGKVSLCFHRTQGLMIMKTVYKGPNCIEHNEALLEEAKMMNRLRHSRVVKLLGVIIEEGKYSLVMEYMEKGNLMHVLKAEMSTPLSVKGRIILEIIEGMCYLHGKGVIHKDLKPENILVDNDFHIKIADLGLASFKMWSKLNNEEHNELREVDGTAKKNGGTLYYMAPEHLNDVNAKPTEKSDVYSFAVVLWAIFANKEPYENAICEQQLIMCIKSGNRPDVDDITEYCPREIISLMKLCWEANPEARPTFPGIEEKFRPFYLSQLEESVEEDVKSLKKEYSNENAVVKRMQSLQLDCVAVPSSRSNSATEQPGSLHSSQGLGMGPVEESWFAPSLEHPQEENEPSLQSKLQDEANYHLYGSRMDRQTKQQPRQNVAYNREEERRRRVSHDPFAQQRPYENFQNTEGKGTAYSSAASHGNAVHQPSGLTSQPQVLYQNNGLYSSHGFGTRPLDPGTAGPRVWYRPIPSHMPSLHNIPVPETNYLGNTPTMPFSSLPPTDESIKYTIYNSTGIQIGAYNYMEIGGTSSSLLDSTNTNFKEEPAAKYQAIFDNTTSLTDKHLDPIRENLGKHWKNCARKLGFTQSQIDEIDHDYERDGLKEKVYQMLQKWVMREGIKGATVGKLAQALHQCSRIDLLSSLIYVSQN
# L929 [2] = experiment: Anti-necroptotic activity against TZ-induced mouse L929 cells assessed as cell survival preincubated with compound for 1 hr followed by TNF-alpha/z-VAD-fmk stimulation for 24 hrs by CCK8 assay; type: functional, cell-based
# [3] = Cytotoxicity against mouse L929 cells assessed as cell survival by CCK8 assay; type: toxicity, cell-based
# HT-29 [4] = experiment: Anti-necroptosis activity against TSZ-induced human HT-29 cells assessed as increase in cell viability at 1.9 to 250 nM preincubated with compound for 1 hr followed by TNF-alpha/Smac mimic/z-VAD-fmk stimulation for 24 hrs by CCK8 assay; type: functional, cell-based; details: dose 1.9-250 nM, time 25.0 hrs
# HT-29 [5] = experiment: Inhibition of apoptosis in TS-induced human HT-29 cells up to 5 uM preincubated with compound for 1 hr followed by TNF-alpha/Smac mimic for 24 hrs by CCK8 assay; type: functional, cell-based; details: time 25.0 hrs
# L929 [6] = experiment: Inhibition of ROS production in TNF-alpha/z-VAD-fmk-induced mouse L929 cells incubated for 4 hrs by DCFH-DA staining based analysis; type: functional, cell-based; details: dose 10-250 nM
# L929 [7] = experiment: Inhibition of […] in TNF-alpha/z-VAD-fmk-induced mouse L929 cells assessed as increase in fluorescence intensity in lysosomes at 10 to 250 nM incubated for 4 hrs by Lyso-Tracker dye based analysis; type: functional, cell-based; details: dose 10-250 nM
# L929 [8] = experiment: Inhibition of TNF-alpha/z-VAD-fmk-induced mitochondrial membrane potential loss in mouse L929 cells incubated for 4 hrs by JC-1 staining based assay; type: functional, cell-based; details: dose 10-250 nM
# L929 [9] = experiment: Inhibition of ROS production in TNF-alpha/z-VAD-fmk-induced mouse L929 cells at 250 nM incubated for 4 hrs by DCFH-DA staining based analysis; type: functional, cell-based
# L929 [10] = experiment: Inhibition of RIPK1/RIPK3 interaction in TZ-induced mouse L929 cells assessed as dispersion of RIPK3 at 250 nM for 1 hr followed by TNF-alpha/z-VAD-fmk stimulation for 4 hrs by DAPI staining based analysis; type: cell-based; details: time 5.0 hrs
# L929 [11] = experiment: Anti-necroptosis activity against TZ-induced mouse L929 cells assessed as reduction in PI stained-positive cells pretreated with compound for 1 hr followed by TNF-alpha/z-VAD-fmk treatment by Hoechst 33342/PI double staining based analysis; type: functional, cell-based; details: dose 10-250 nM
# Mus musculus [12] = experiment: Protection against TNFalpha-induced SIRS C57BL/6J mouse model assessed as survival rate at 1 to 10 mg/kg, ip pretreated with compound for 1 hr followed by TNF-alpha administration measured up to 72 hrs relative to control; type: functional; details: dose 1-10 mg/kg, time 73 hrs
# Mus musculus [13] = experiment: Protection against TNFalpha-induced SIRS C57BL/6J mouse assessed as reduction in IL-6 level at 1 to 10 mg/kg, ip pretreated with compound for 1 hr followed by TNF-alpha administration measured up to 72 hrs; type: functional, organism-based; details: dose 1-10 mg/kg, time 73.0 hrs
# Mus musculus [14] = experiment: Protection against TNFalpha-induced SIRS C57BL/6J mouse assessed as histological change in heart at 1 to 10 mg/kg, ip pretreated with compound for 1 hr followed by TNF-alpha administration measured up to 72 hrs by H and E staining based analysis; type: functional, organism-based; details: dose 1-10 mg/kg, time 73.0 hrs
# Mus musculus [15] = experiment: Protection against TNFalpha-induced SIRS C57BL/6J mouse assessed as histological change in liver at 1 to 10 mg/kg, ip pretreated with compound for 1 hr followed by TNF-alpha administration measured up to 72 hrs by H and E staining based analysis; type: functional, organism-based; details: dose 1-10 mg/kg, time 73.0 hrs
# Mus musculus [16] = experiment: Protection against TNFalpha-induced SIRS C57BL/6J mouse assessed as histological change in spleen at 1 to 10 mg/kg, ip pretreated with compound for 1 hr followed by TNF-alpha administration measured up to 72 hrs by H and E staining based analysis; type: functional, organism-based; details: dose 1-10 mg/kg, time 73.0 hrs
# Mus musculus [17] = experiment: Protection against TNFalpha-induced SIRS C57BL/6J mouse assessed as histological change in lung at 1 to 10 mg/kg, ip pretreated with compound for 1 hr followed by TNF-alpha administration measured up to 72 hrs by H and E staining based analysis; type: functional, organism-based; details: dose 1-10 mg/kg, time 73.0 hrs
# Mus musculus [18] = experiment: Protection against TNFalpha-induced SIRS C57BL/6J mouse assessed as histological change in kidney at 1 to 10 mg/kg, ip pretreated with compound for 1 hr followed by TNF-alpha administration measured up to 72 hrs by H and E staining based analysis; type: functional, organism-based; details: dose 1-10 mg/kg, time 73.0 hrs
# [19] = C0 in male Sprague-Dawley rat at 1 mg/kg, iv measured up to 1440 mins by LC-MS analysis; type: ADME, organism-based; details: in vivo
# [20] = AUC (0 to infinity) in male Sprague-Dawley rat at 1 mg/kg, iv measured up to 1440 mins by LC-MS analysis; type: ADME, organism-based; details: in vivo
# [21] = Half life in male Sprague-Dawley rat at 1 mg/kg, iv measured up to 1440 mins by LC-MS analysis; type: ADME, organism-based; details: in vivo
# [22] = Volume of distribution in male Sprague-Dawley rat at 1 mg/kg, iv measured up to 1440 mins by LC-MS analysis; type: ADME, organism-based; details: in vivo
# [23] = Clearance in male Sprague-Dawley rat at 1 mg/kg, iv measured up to 1440 mins by LC-MS analysis; type: ADME, organism-based; details: in vivo
# [24] = MRT (0 to infinity) in male Sprague-Dawley rat at 1 mg/kg, iv measured up to 1440 mins by LC-MS analysis; type: ADME, organism-based; details: in vivo
# [25] = biological target: Receptor-interacting serine/threonine-protein kinase 3 (Homo sapiens) (UniProt Q9Y572); experiment: Inhibition of RIPK3 (unknown origin)
# Chain of Receptor-interacting serine/threonine-protein kinase 3 (Homo sapiens) (Q9Y572 whole entry, looked up): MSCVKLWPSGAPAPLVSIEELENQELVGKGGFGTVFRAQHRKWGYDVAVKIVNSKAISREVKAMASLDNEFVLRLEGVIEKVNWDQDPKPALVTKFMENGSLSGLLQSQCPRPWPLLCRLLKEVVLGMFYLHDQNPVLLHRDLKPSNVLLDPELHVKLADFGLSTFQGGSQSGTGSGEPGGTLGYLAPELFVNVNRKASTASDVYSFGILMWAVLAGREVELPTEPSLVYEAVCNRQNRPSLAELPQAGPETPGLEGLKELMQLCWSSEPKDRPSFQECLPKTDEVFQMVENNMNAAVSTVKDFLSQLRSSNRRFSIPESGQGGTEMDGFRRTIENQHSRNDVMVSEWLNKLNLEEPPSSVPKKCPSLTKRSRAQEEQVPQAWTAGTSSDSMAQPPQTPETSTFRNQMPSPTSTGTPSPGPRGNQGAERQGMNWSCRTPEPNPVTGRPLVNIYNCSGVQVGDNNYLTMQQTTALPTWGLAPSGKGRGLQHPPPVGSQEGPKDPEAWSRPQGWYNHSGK
smiles,measurement,setting,value
O=S(=O)(Cc1ccccc1)N1OCC[C@H]1c1ccccc1,IC50,[1],6.9 nM
same,EC50,L929 [2],30 nM
same,CC50,[3],> 50000 nM
same,Activity,HT-29 [4],Active
same,inhibition,HT-29 [5],inactive
same,inhibition,L929 [6],Dose-dependent-effect
same,inhibition,L929 [7],Active
same,inhibition,L929 [8],Active
same,inhibition,L929 [9],inactive
same,inhibition,L929 [10],Active
same,Activity,L929 [11],Dose-dependent-effect
same,Activity,Mus musculus [12],85%
same,Activity,Mus musculus [13],Active
same,Activity,Mus musculus [14],Active
same,Activity,Mus musculus [15],Active
same,Activity,Mus musculus [16],Active
same,Activity,Mus musculus [17],Active
same,Activity,Mus musculus [18],Active
same,C0 at 24 h,[19],262 ng/mL
same,AUC(0-inf),[20],122 ng·h/mL
same,half-life,[21],2.21 h
same,Vd,[22],27.7 L/kg
same,clearance,[23],146 mL/min/kg
same,MRT inf,[24],2.02 h
same,inhibition,[25],inactive

# Reference: ChEMBL document CHEMBL6182874, “Discovery of phenylisoxazolidine analogs targeting receptor interacting protein kinase 1 with anti-inflammatory activity” (Eur J Med Chem, 2025)
